Experiments:
[1] = tested on: E. coli (EcDH5a); assay: Checkerboard synergy assay (FIC), laboratory isolate; type: cell-based, Escherichia coli
Description: Before initiating drug combination assays, the MIC values for both compounds were determined against Shigella (Sf2457T), Salmonella (St14028), and E. coli (EcDH5a) isolates. […] 20 μM moxifloxacin was used as negative control (100% bacterial growth inhibition) in one column and DMSO as positive control (100% bacterial growth). A total of 25 µl of 1 × 10^6 CFU/mL bacterial culture was added to each well of a 384-well plate (μClear; Greiner Bio‐One). Plates were incubated overnight at 37 °C. Next, 10 µl of resazurin were added and plates were incubated at room temperature for 3 hr. Bacterial growth inhibition was measured by fluorescence in a Envision plate reader (PerkinElmer). All assays were performed in duplicate. Combination studies with clinical isolates were performed in 96-well plates (Greiner) adding 200 μl of 1 × 10^6 CFU/mL bacterial culture and following the same checkboard titration method as described above. The range of final working concentrations of each antimicrobial was adjusted based on the MIC of each selected organism.
MICs were determined for drug A and drug B alone and in combination. […] The sum of FIC was expressed using the following equation: FIC = (MIC of drug A in combination / MIC of drug A alone) + (MIC of drug B in combination / MIC of drug B alone) ([Le Minh et al., 2015]; [Petersen et al., 2006]; [Hall et al., 1983]; [European Committee for Antimicrobial Susceptibility Testing (EUCAST) of the European Society of Clinical Microbiology and Infectious Dieases (ESCMID), 2000]).

[2] = tested on: Campylobacter jejuni; assay: MIC by micro dilution, clinical Campylobacter isolates from Vietnam; type: cell-based; details: 75 Campylobacter jejuni from diarrhoeal cases in Vietnam; read-out: median MIC
Source text: (§1) Selected compounds, including Tebipenem, were profiled against a panel of […] clinical isolates of enteric pathogens comprised of Shigella (Vietnam and Kenya; n = 135), non-typhoidal Salmonella (Vietnam; n = 117), Campylobacter (Vietnam; n = 75), and various pathogenic E. coli species (Vietnam; n = 7) ([Butcher et al., 2014]). The antimicrobial susceptibility profile of these organisms is described in Supplementary file 1.
(§2) Compound screening and dose response assays have been described previously ([Van Voorhis et al., 2016]; [Wiegand et al., 2008]). Briefly, the selected bacteria were cultured on the Luria-Bertani agar overnight at 37 °C (Campylobacter isolates were grown in 2.5% Laked Horse Blood cation-adjusted Mueller Hinton medium (CAMHB, Sigma Aldrich) and incubated in microaerophilic conditions (10% CO2, 5% O2 and 85% N2) at 42 °C); colonies were added to sterile PBS to form 0.5 McFarland solutions. […] The activity of the chemical was recorded as being active (yes) or non-active (no) for each of the tested chemicals. A non-active result was recorded when there was no evidence of bacterial inhibition, and the culture area was indistinguishable from the negative control.
(§3) MICs were evaluated using the micro dilution assay in Müller Hinton broth using 1 mM chemical stock solutions, and a final concentration of 5 × 10^5 CFU/mL bacteria. […]

[3] = tested on: E. coli; assay: MIC by micro dilution, clinical E. coli isolates from Vietnam; type: cell-based; details: Escherichia coli; seven E. coli from diarrhoeal cases in Vietnam; read-out: median MIC
Source text: as §1, §2, §3

[4] = in vivo; details: female, C57, mouse; for bioavailability: mice, n = 3
[5] = in combination with LpxC inhibitor PF-5081090

C[C@@H](O)[C@H]1C(=O)N2C(C(=O)O)=C(SC3CN(C4=NCCS4)C3)[C@H](C)[C@H]12 [Tebipenem]
interaction (FIC index) [1, 5]: partial synergy
reduction of the MIC against Tebipenem [1, 5]: > 10 fold
interaction (FIC index) ([1]; in combination with azithromycin): indifference or antagonism
interaction (FIC index) ([1]; in combination with ceftriaxone): indifference or partial synergy
interaction (FIC index) ([1]; in combination with ciprofloxacin): indifference or partial synergy
interaction (FIC index) ([1]; in combination with mecillinam): indifference or partial synergy
MIC [2]: < 0.1 µM
MIC [3]: < 0.1 µM
Tmax [4]: ≤ 60 min
AUC(0-t) ([4]; 39 mg/kg): 80000 ng·h/mL
AUC(0-t) ([4]; po, 39 mg/kg): 7500 ± 1500 ng·h/mL
Cmax ([4]; po, 39 mg/kg): 3700 ± 900 ng/mL
bioavailability ([4]; po, 39 mg/kg, Tebipenem PO 39 mg/kg): ~5%
AUC(0-t) ([4]; sc, 39 mg/kg): 80400 ± 7700 ng·h/mL
Cmax ([4]; sc, 39 mg/kg): 71000 ± 15300 ng/mL
Tmax ([4]; sc, 39 mg/kg): 15 min
bioavailability ([4]; sc, 39 mg/kg, Tebipenem SQ 39 mg/kg): 44 ± 4%
